Reference: US20160271149A1, “[…] COMPOUNDS THAT […] PROTEIN ARGININE […] ACTIVITY FOR REDUCING TUMOR CELL PROLIFERATION” (Epinova Therapeutics Corp., priority 2015, published 2016)
Several values for one entry are separate records, joined by “and”; a condition that tells them apart may be missing. Equal entries are not always repeated. Structures can show the parent of a compound that is named as a salt.

Assays:
PRMTs = assay: Screen against protein arginine methyltransferases, summary statement
Procedure: (§1) A 10 mM DMSO stock solution of each test compound was prepared.
(§2) Compounds were tested in a single-dose mode, in duplicate at the following concentrations.
(§3) Reactions were carried out at 1 μM SAM. The no inhibitor control was set as 100% activity).

LXRα = biological target: T1, LXRα (Homo sapiens, UniProt Q13133); conditions: human isoform; cited from earlier work
T1 sequence (Q13133 1-447): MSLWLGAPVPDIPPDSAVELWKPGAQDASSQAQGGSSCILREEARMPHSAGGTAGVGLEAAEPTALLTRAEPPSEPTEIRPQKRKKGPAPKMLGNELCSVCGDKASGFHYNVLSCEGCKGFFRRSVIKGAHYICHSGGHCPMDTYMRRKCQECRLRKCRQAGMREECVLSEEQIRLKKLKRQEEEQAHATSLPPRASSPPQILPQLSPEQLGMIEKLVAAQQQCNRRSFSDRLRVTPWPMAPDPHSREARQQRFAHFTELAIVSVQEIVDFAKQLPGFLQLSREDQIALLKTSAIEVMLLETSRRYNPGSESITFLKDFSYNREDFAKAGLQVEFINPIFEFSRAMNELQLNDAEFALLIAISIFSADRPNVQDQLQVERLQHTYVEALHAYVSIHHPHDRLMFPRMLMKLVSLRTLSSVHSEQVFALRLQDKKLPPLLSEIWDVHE

LXR and FXR = conditions: cited from earlier work
PRMT1 = PRMT1 (Homo sapiens, UniProt Q99873); assay: Methyltransferase activity screen, PRMT1, substrate Histone H4; conditions: single-dose mode, duplicate (Data 1, Data 2), 1 μM SAM, 100 μM
PRMT1, sequence (Q99873 whole entry): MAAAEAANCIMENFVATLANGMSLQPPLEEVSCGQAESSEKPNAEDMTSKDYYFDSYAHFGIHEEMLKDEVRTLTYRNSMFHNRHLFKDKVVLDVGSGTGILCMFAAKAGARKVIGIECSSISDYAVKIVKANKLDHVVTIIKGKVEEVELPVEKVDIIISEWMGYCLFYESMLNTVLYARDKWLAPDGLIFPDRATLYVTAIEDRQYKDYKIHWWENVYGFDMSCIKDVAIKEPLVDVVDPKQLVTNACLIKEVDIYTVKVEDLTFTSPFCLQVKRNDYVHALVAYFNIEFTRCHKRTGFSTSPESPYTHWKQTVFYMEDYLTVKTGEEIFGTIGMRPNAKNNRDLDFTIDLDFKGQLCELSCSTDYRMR
Procedure: as §1, §2, §3

PRMT6 = PRMT6 (Homo sapiens, UniProt Q96LA8); assay: Methyltransferase activity screen, PRMT6, substrate Histone H3; conditions: for % Enzyme Activity (relative to DMSO controls): PRMT6, substrate Histone H3, single-dose mode, duplicate (Data 1, Data 2), 1 μM SAM, 100 μM
PRMT6, sequence (Q96LA8 whole entry): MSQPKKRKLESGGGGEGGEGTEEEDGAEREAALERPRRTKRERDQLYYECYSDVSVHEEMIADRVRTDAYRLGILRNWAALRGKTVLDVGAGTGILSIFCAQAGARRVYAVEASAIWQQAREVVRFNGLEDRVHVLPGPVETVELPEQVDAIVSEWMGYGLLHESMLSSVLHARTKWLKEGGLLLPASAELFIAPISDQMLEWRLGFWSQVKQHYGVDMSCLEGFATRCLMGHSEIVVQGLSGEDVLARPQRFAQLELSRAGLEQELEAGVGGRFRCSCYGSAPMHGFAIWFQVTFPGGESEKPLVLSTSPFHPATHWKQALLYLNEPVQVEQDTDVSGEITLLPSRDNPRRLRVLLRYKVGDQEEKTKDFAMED
Procedure: as §1, §2, §3

PRMT5 = PRMT5 (Homo sapiens, UniProt O14744); assay: Methyltransferase activity screen, PRMT5, substrate Histone H2A; conditions: for % Enzyme Activity (relative to DMSO controls): PRMT5, substrate Histone H2A, single-dose mode, duplicate (Data 1, Data 2), 1 μM SAM, 100 μM; for inhibition of PRMT5: at a concentration of 100 μM
PRMT5, sequence (O14744 whole entry): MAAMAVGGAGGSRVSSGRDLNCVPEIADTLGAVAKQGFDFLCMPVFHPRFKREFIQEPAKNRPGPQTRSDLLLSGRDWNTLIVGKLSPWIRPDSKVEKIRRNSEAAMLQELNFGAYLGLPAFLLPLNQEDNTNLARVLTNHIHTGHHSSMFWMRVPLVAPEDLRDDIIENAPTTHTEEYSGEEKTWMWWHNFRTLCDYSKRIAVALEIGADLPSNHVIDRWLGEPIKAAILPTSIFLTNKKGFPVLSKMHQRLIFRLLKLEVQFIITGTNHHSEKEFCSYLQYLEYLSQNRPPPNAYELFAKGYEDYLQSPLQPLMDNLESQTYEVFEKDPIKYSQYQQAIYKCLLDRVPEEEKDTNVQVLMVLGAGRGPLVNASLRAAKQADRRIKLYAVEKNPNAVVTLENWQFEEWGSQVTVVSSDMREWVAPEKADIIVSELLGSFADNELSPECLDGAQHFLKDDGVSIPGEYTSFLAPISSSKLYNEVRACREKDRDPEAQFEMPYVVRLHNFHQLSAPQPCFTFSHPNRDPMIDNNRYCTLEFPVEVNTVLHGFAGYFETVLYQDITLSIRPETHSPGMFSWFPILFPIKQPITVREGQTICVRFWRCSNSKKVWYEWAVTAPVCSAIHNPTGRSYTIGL
Procedure: as §1, §2, §3

PRMT5/MEP50 = PRMT5/MEP50 (Homo sapiens, UniProt O14744); assay: Methyltransferase activity screen and profiling, PRMT5/MEP50, substrate Histone H2A; conditions: for % Enzyme Activity (relative to DMSO controls): PRMT5/MEP50, substrate Histone H2A, single-dose mode, duplicate (Data 1, Data 2), 1 μM SAM, 100 μM; for % Activity / Raw data: PRMT5/MEP50 profiling; for HILLSLOPE: Table 4, PRMT5/MEP50 dose-response curve fit
PRMT5/MEP50, sequence (O14744 whole entry): as above
PRMT5/MEP50, sequence (Q9BQA1 whole entry partner): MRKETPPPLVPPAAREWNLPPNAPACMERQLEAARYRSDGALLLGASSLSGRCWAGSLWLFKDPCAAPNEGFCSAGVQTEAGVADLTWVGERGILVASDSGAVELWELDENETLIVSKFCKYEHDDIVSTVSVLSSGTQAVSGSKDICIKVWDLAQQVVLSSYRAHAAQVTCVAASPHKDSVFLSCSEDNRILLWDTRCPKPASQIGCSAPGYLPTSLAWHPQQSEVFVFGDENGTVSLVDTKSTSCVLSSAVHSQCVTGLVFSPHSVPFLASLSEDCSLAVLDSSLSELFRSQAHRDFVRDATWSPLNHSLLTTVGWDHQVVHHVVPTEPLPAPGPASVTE
Procedure: as §1, §2, §3

human PPARα = biological target: T2, human PPARα (Homo sapiens, UniProt Q07869); conditions: at 1 μM; COS-1 cells, human PPARα and RXRα; cited from earlier work
T2 sequence (Q07869 1-468): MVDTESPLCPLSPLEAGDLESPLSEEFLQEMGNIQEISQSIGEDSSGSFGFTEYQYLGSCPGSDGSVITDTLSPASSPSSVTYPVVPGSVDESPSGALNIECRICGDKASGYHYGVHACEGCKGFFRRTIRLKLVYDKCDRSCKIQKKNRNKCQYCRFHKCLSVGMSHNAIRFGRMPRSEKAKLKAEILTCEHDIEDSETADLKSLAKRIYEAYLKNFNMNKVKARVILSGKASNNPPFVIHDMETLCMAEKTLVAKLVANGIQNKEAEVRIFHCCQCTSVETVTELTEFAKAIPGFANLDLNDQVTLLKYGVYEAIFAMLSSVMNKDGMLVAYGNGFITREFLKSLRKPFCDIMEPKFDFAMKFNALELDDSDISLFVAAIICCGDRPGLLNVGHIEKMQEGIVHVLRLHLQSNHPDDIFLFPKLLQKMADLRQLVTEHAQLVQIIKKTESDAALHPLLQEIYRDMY
T2 sequence (P19793 1-462 partner): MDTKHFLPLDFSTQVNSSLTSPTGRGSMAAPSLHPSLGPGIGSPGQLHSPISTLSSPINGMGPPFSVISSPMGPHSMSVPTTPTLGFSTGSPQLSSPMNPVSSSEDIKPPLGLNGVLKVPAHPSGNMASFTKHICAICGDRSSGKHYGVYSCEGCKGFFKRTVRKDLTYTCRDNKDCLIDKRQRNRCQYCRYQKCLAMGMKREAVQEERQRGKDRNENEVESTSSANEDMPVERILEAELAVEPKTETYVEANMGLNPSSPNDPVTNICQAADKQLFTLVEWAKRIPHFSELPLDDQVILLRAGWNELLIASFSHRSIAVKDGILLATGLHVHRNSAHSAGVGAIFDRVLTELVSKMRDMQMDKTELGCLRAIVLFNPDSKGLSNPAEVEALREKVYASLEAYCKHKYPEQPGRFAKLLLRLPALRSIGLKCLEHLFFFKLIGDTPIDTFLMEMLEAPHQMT

TGR5 = biological target: T3, TGR5 (Homo sapiens, UniProt Q8TDU6); conditions: cited from earlier work
T3 sequence (Q8TDU6 1-330): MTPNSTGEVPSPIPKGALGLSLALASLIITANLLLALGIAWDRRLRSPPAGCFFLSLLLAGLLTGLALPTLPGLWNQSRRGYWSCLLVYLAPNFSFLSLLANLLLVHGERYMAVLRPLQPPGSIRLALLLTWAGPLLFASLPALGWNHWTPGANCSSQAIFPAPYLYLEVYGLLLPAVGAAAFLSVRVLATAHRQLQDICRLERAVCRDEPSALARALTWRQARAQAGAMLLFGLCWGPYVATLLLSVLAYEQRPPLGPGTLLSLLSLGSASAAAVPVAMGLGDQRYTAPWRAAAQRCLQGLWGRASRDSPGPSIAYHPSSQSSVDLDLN

Structure (SMILES)	% Activity (PRMT5/MEP50; Conc. 1.00E−04 M) [%]	Raw data (PRMT5/MEP50; Conc. 1.00E−04 M)	% Activity (PRMT5/MEP50; Conc. 1.11E−05 M) [%]	Raw data (PRMT5/MEP50; Conc. 1.11E−05 M)	% Activity (PRMT5/MEP50; Conc. 1.23E−06 M) [%]	Raw data (PRMT5/MEP50; Conc. 1.23E−06 M)	% Activity (PRMT5/MEP50; Conc. 1.37E−07 M) [%]	Raw data (PRMT5/MEP50; Conc. 1.37E−07 M)	% Activity (PRMT5/MEP50; Conc. 1.52E−08 M) [%]	Raw data (PRMT5/MEP50; Conc. 1.52E−08 M)	% Activity (PRMT5/MEP50; Conc. 3.33E−05 M) [%]	Raw data (PRMT5/MEP50; Conc. 3.33E−05 M)	% Activity (PRMT5/MEP50; Conc. 3.70E−06 M) [%]	Raw data (PRMT5/MEP50; Conc. 3.70E−06 M)	% Activity (PRMT5/MEP50; Conc. 4.12E−07 M) [%]	Raw data (PRMT5/MEP50; Conc. 4.12E−07 M)	% Activity (PRMT5/MEP50; Conc. 4.57E−08 M) [%]	Raw data (PRMT5/MEP50; Conc. 4.57E−08 M)	% Activity (PRMT5/MEP50; Conc. 5.08E−09 M) [%]	Raw data (PRMT5/MEP50; Conc. 5.08E−09 M)	further results
C[C@H](CCC(=O)O)[C@H]1CC[C@H]2[C@@H]3[C@H](O)C[C@@H]4C[C@H](O)CC[C@]4(C)[C@H]3CC[C@]12C [Chenodeoxycholic acid, 3α, 7α-dihydroxy-5β-cholan-24-oic acid]																					direct inhibitory effect on PRMTs (PRMTs): no direct inhibitory effect
Cl.O=C(O)Cc1cccc(OCCCN(Cc2cccc(C(F)(F)F)c2Cl)CC(c2ccccc2)c2ccccc2)c1 [GW 3965, 3-[3-[[[2-chloro-3-(trifluoromethyl)phenyl]methyl](2,2-diphenylethyl)amino]propoxy]-benzeneacetic acid, monohydrochloride]	1.47	6431	124.34	544281	105.86	463366	103.73	454053	95.29	417100	137.65	602561	112.86	494019	103.66	453763	99.34	434862	98.94	433085	EC50 (LXRα): 0.29 µM; affinity for LXR and FXR (LXR and FXR): nanomolar affinity; % Enzyme Activity (relative to DMSO controls) (PRMT1; monohydrochloride): 6.93% and 4.55%; % Enzyme Activity (relative to DMSO controls) (PRMT6; monohydrochloride): 83.29% and 103.66%; % Enzyme Activity (relative to DMSO controls) (PRMT5; monohydrochloride): 90.29% and 97.35%; IC50 (PRMT5/MEP50): 84.2 µM; % Enzyme Activity (relative to DMSO controls) (PRMT5/MEP50; monohydrochloride): 1.54% and 1.23%; HILLSLOPE (PRMT5/MEP50): −24.99
CC(C)c1onc(-c2c(Cl)cccc2Cl)c1COc1ccc(C=Cc2cccc(C(=O)O)c2)c(Cl)c1 [GW 4064, 3-[2-[2-chloro-4-[[3-(2,6-dichlorophenyl)-5-(1-methylethyl)-4-isoxazolyl]methoxy]phenyl]ethenyl]-benzoic acid]	5.70	24954	117.75	515444	105.80	463109	99.86	437127	96.95	424387	120.51	527528	103.51	453113	99.48	435450	97.26	425743	94.60	414110	affinity for LXR and FXR (LXR and FXR): nanomolar affinity; IC50 (PRMT5/MEP50): 79.2 µM; HILLSLOPE (PRMT5/MEP50): −12.23
CC[C@H]1[C@@H](O)[C@@H]2[C@H](CC[C@]3(C)[C@@H]([C@H](C)CCC(=O)O)CC[C@@H]23)[C@@]2(C)CC[C@@H](O)C[C@@H]12 [INT-747, 6α-Ethyl-chenodeoxycholic acid]																					% Enzyme Activity (relative to DMSO controls) (PRMT1): 112.72% and 115.42%; % Enzyme Activity (relative to DMSO controls) (PRMT6): 312.24% and 288.93%; % Enzyme Activity (relative to DMSO controls) (PRMT5): 106.35% and 105.51%; % Enzyme Activity (relative to DMSO controls) (PRMT5/MEP50): 95.73% and 93.91%
CN(C)C(=N)N=C(N)N [Metformin, N, N-dimethyl-imidodicarbonimidic diamide, monohydrochloride]																					% Enzyme Activity (relative to DMSO controls) (PRMT1; monohydrochloride): 100.50% and 101.26%; % Enzyme Activity (relative to DMSO controls) (PRMT6; monohydrochloride): 90.66% and 90.30%; % Enzyme Activity (relative to DMSO controls) (PRMT5; monohydrochloride): 98.74% and 84.85%; % Enzyme Activity (relative to DMSO controls) (PRMT5/MEP50; monohydrochloride): 88.20% and 82.84%
CCc1ccc(CCOc2ccc(CC3SC(=O)NC3=O)cc2)nc1 (stereo not shown) [Pioglitazone, 5-[[4-[2-(5-ethyl-2-pyridinyl)ethoxy]phenyl]methyl]-2,4-thiazolidinedione]																					activation of PPARα (human PPARα): low level activation; % Enzyme Activity (relative to DMSO controls) (PRMT1): 110.44% and 99.23%; % Enzyme Activity (relative to DMSO controls) (PRMT6): 93.46% and 102.78%; % Enzyme Activity (relative to DMSO controls) (PRMT5): 18.95% and 18.46%; inhibition of PRMT5 (PRMT5): mild inhibitor; % Enzyme Activity (relative to DMSO controls) (PRMT5/MEP50): 43.68% and 45.13%
CN(CCOc1ccc(CC2SC(=O)NC2=O)cc1)c1ccccn1 (stereo not shown) [Rosiglitazone, 5-[[4-[2-(methyl-2-pyridinylamino)ethoxy]phenyl]methyl]-2,4-thiazolidinedione]																					inhibition of PRMT5 (PRMT5): no effect
Nc1ncnc2c1ncn2[C@@H]1O[C@H](CSCC[C@H](N)C(=O)O)[C@@H](O)[C@H]1O [SAH, S-(5′-Adenosyl)-L-homocysteine]	5.40	23637	23.32	102087	61.44	268933	87.83	384445	90.12	394475	11.73	51347	42.02	183946	72.99	319517	96.88	424069	91.72	401476	IC50 (PRMT6): 0.623 µM; HILLSLOPE (PRMT5/MEP50): −0.78
Cc1onc(-c2ccccc2Cl)c1C(=O)N(C)c1ccc(Cl)cc1 [TGR5 agonist, 3-(2-chlorophenyl)-N-(4-chlorophenyl)-N,5-dimethyl-4-isoxazolecarboxamide]																					pEC50, activator of TGR5 (TGR5): 6.8-7.5; % Enzyme Activity (relative to DMSO controls) (PRMT1): 100.02% and 92.67%; % Enzyme Activity (relative to DMSO controls) (PRMT6): 70.12% and 73.79%; % Enzyme Activity (relative to DMSO controls) (PRMT5): 84.41% and 87.02%; % Enzyme Activity (relative to DMSO controls) (PRMT5/MEP50): 90.97% and 82.32%
